The experiment relates to IOP (intra-ocular pressure). In words: Clinical studies: change from baseline IOP after 20 nL nanodoses of bimatoprost. The note with it: ~1 μg BP dosed as 20 nL on Days 0-3; IOP collected ~24 hours post-dose. It counts as in vivo, humans. The protocol:
These IOP (intra-ocular pressure) data were collected ˜24 hours post-dose on each day. […] The Day 5 data shown in FIG. 1 below are the change from baseline IOP values following application of Lumigan.

Take `CCNC(=O)CCC/C=C\C[C@@H]1[C@@H](/C=C/[C@@H](O)CCc2ccccc2)[C@H](O)C[C@@H]1O` [BP, bimatoprost]: the “IOP-lowering effect (change from baseline IOP)” value is on record as “IOP-lowering effect can occur”.

Values taken from US20130018360A1 (priority 2011, published 2013).
